Here are results for four compounds from publication PMC11206507, “Unraveling the Impact of Six Pentacyclic Triterpenes Regulating Metabolic Pathways on Lung Carcinoma Cells” (Pharmaceuticals, 2024).

The test system of assay [1] is NSCLC A549 cells. Further details: method as in PMID 31338398. As to conditions: 24 h, MTS/PMS; already obtained by the authors; cited from earlier work.
Assay [2] concerns MAPK/PI3K. The assay is described as follows: MAPK/PI3K protein expression (dual pathway activation kit, flow cytometry). On MAPK/PI3K inhibition: key: '✔' means induction; '-' means non-induction of any of the tested processes. It counts as cell-based, human. The settings on record: for MAPK/PI3K expression (in words): A549, IC25, 24 h, vs untreated cells; for MAPK/PI3K inhibition: summary, NSCLC A549 cells. On the procedure: (§1) We used flow cytometry to analyze several cellular mechanistic pathways in A549 cells after incubation with the triterpenes. In general, the cells were seeded in a 6-well plate at a density of 1 × 10^6 cells/mL and incubated for 24 h in supplemented DMEM. After 24 h, the A549 cells were treated with the triterpenes, following each manufacturer’s protocol. All of the following experiments were performed in a Muse® Cell Analyzer (EMD Millipore Corporation, Temecula, CA). The instrument was calibrated before each assay using the Muse® System Check Kit (Luminex MCH100101, Luminex Corporation). Each assay was run at least in two independent experiments. For each experiment, all samples were analyzed in triplicate in the instrument and the capillary line was washed after each sample run to avoid artifacts. In addition, to address the issue of cell doublets, we used the Muse® Cell Dispersal Reagent (Luminex Corporation) in all experiments. The concentration of the triterpenes in each assay was selected depending on the cellular concentration necessary to generate the gain signal in the instrument. This means that we attempted to select concentrations avoiding excessive cytotoxicity to accurately determine the respective signal from each assay.
The Muse® P13K/MAPK Dual Pathway Activation Kit (Luminex MCH200108, Luminex Corporation) was used to determine MAPK/PI3K expression. After the incubation treatment with the triterpenes (IC25) for 24 h, the A549 cells were scraped, centrifuged, and washed once with 1× PBS. Next, the fixation buffer was incubated for 10 min and then the permeabilization buffer for another 10 min. Both incubations were performed on ice. Later, the antibody cocktail containing anti-phospho-Akt and anti-phospho-ERK1/2 was incubated for 30 min. Afterward, the cell pellet was washed and suspended in fresh assay buffer for measurement.
For orientation: A flow cytometer gives signals particle by particle.

Assay [3] has as its system A549 cells. The assay is described as follows: Externalization of phosphatidylserine, Annexin V confocal microscopy. The settings on record: A549, IC25, 24 h. In kind it is cell-based, human. The protocol: Early apoptotic activity was evaluated by the externalization of PS using the Alexa Fluor® 488 Annexin V Apoptosis Reagent (Molecular Probes™) and NucBlue ReadyProbes Reagent™ (Thermo Fisher Scientific). For this assay, A549 cells were seeded in 8-well cover slip plates with a density of 1 × 10^5 cells/mL for 24 h in supplemented DMEM. Then, the A549 cells were incubated with the triterpenes (IC25) and controls for 24 h. Afterward, the cells were washed with 1× PBS and incubated with NucBlue (DAPI analog) and Annexin V for 15 min in the dark. The cells were fixed with 3.7% formaldehyde solution for 15 min, washed three times with 1× PBS, and covered with glycerol before visualization. The plates were observed by confocal microscopy using a Nikon Eclipse Ti microscope (Nikon Instruments Inc., El Segundo, CA, USA), utilizing a 20× oil objective with filter sets compatible with DAPI (Ex/Em = 405/460 nm) and Annexin V Alexa Fluor (Ex/Em = 488/525 nm). The fluorescence intensity was analyzed using the NIS-Elements Viewer program (version 5.21 64-bit) (Nikon Instruments Inc.). Each sample was analyzed in duplicate in two independent experiments. The fluorescence intensity was adjusted using untreated cells for each fluorescence channel (green and blue). Subsequently, this calibrated intensity was applied for the analysis of all treated cells.

Assay [4] has as its system NSCLC A549 cells. The assay is described as follows: MTS/PMS cell viability, A549. On TI > 1: key: '✔' means induction; '-' means non-induction of any of the tested processes. In kind it is cell-based, human. The settings on record: for TI > 1: summary, MRC5 vs A549. On the procedure:
A similar procedure was performed to determine the IC50 of the triterpenes in a normal lung fibroblast cell line (MRC5). In brief, the A549 and MRC5 cells were seeded into 96-well plates at a density of 1 × 10^5 cells/mL in supplemented DMEM medium. […] Then, 10 uL of the MTS reagent from the CellTiter 96® Aqueous Non-Radioactive Cell Proliferation Assay (Promega G5421) was added to each well. Then, we incubated the plates at 37 °C and in a 5% CO2 atmosphere for 1 h. After incubation, the absorbance was measured at 492 nm (n = 8) in a microplate reader spectrophotometer (Thermoscientific Multiskan FC). The cell viability was calculated as follows:% Viability = (sample absorbance − sample media absorbance)/(untreated cells’ absorbance − untreated cells’ media absorbance) × 100
The cell viability data were presented by plotting the values with an average of eight measurements for each treatment (mean ± SD) in at least three independent experiments. The IC50 values were calculated with the GraphPad Prism 9 software (Prism 9; GraphPad by Dotmatics, San Diego, CA, USA) using the dose–response curve.

Assay [5] deals with LC3-II. Kind of assay: Autophagy induction assay (LC3 antibody, flow cytometry). In kind it is cell-based, human. As to conditions: for Autophagic response (in words): A549, IC25, 24 h, vs controls (untreated ratio 0.8, starving ratio 1); for Autophagy inhibition: summary, NSCLC A549 cells. The protocol:
as §1
The Muse® Autophagy LC3 Antibody-Based Kit (Luminex MCH200109, Luminex Corporation) was used to determine autophagy activation by monitoring lipidated LC3-II. After the A549 cells were treated with the triterpenes (IC25) for 24 h, autophagy reagent A was added for 4 h to prevent the lysosomal degradation of LC3-II. Then, the cells were detached and centrifuged. The pellet was suspended and incubated for 30 min in the autophagy reagent B containing anti-LC3-II mouse monoclonal antibody. Finally, the cell pellet was washed and suspended in fresh assay buffer for measurement. The autophagy response was calculated using the following formula:
Autophagy ratio = mean autophagy value of treated or untreated cells/mean autophagy value of starving cells.
The starving cells were labeled ‘No supp’ as non-supplemented cells. These served as the positive signal for autophagy and were designated a ratio of 1 since they were compared to themselves. A ratio ≥1 indicates the activation of the autophagic response.

Assay [6] has as its system caspase 3. Kind of assay: Caspase 3 activity assay (Apo-ONE Caspase-3/7). It counts as cell-based, human. As to conditions: for Caspase 3 activation (in words): A549, IC50, 24 h, vs untreated cells and CisPt. On the procedure:
The intrinsic apoptosis activity was evaluated by the quantification of caspase 3 enzymatic activity using the Apo-ONE® Homogeneous Caspase-3/7 Assay (Promega G7792). A549 cells were seeded in a concentration of 1 × 10^5 cells/mL into black 96-well plates with a clear bottom. […] After the completion of the incubation, 50 μL of Apo-ONE® Caspase-3/7 Reagent (1:100 rhodamine 110 bis-(N-CBZ-l-aspartyl-l-glutamyl-l-valyl-aspartic acid amide) (Z-DEVD-R110) substrate diluted in lysis buffer) was added to each well. The plate was gently mixed using a plate shaker at 150 rpm for 2 h at room temperature. Then, the fluorescence of each well was measured (Ex/Em = 485/530 nm) in the Tecan® M200 plate reader.
The caspase 3 activity experiments were performed in triplicate. All data were expressed by plotting the values with an average of three measurements for each treatment condition as the mean ± SD and analyzed with the software GraphPad Prism 9 (San Diego, CA, USA). Statistical analysis was performed using one-way analysis of variance (ANOVA) to compare the mean value of each type of treated cells versus the control (untreated cells). The statistical significance defined by the software for p values was **** < 0.0001, *** from 0.001 to 0.0001, ** from 0.001 to 0.01, * from 0.01 to 0.05, and non-significant (ns) ≥ 0.05.

The structures appear in SMILES notation. Entries after “also recorded” stand apart in the source; their conditions may differ. Where two headings read alike, the source gives them in different places.

What is called IC50 is the concentration needed to halve the response being measured. Consider `C=C(C)[C@@H]1CC[C@]2(C(=O)O)CC[C@]3(C)[C@H](CC[C@@H]4[C@@]5(C)CC[C@H](O)C(C)(C)[C@@H]5CC[C@]43C)[C@@H]12` [BeA, betulinic acid], for which the IC50 in assay [1] is 15 ± 0.7 µM. Moreover, in assay [2], the “MAPK/PI3K expression (in words)” value is listed as “did not affect the expression of MAPK/PI3K” and the MAPK/PI3K inhibition entry was “-”. Moreover, the “Early apoptosis, externalization of PS (in words, qualitative)” value (shortened to “Early apoptosis, externalization of PS”) in assay [3] is on record as “lowest”. In assay [4], the TI was 1.27. The compound further showed a TI in assay [4] (TI = MRC5 IC50/A549 IC50, >1 means higher selectivity) above 1.

With `C=C(C)[C@@H]1CC[C@]2(CO)CC[C@]3(C)[C@H](CC[C@@H]4[C@@]5(C)CC[C@H](O)C(C)(C)[C@@H]5CC[C@]43C)[C@@H]12` [Betu, betulin], in assay [5], the “Autophagic response (in words)” value was “induced an autophagic response similar to that of CisPt” and the Autophagy inhibition result is given as “-”. Further, in assay [2], the “MAPK/PI3K expression (in words)” value was “slightly inhibit the total expression of MAPK/PI3K”. Also, in assay [3], the “Early apoptosis, externalization of PS” value is reported as “strongest activation”. Also, the “Caspase 3 activation (in words)” value in assay [6] is on record as “higher caspase 3 activation than CisPt”. For the same compound, in assay [4], the TI stood at 0.73 and the “TI > 1” value is listed as “-”. Also, the IC50 in assay [4] (Homo sapiens, A549, 24 h, MTS/PMS) worked out at 22 ± 1 µM.

For the compound `C=C(C)[C@@H]1CC[C@]2(C)CC[C@]3(C)[C@H](CC[C@@H]4[C@@]5(C)CC[C@H](O)C(C)(C)[C@@H]5CC[C@]43C)[C@@H]12` [Lupe, lupeol], the IC50 in assay [1] was 80 ± 6 µM. Also, the “Autophagic response (in words)” value in assay [5] is “inhibit the LC3-II activity”. Moreover, in assay [2], the “MAPK/PI3K expression (in words)” value is given as “did not affect the expression of MAPK/PI3K” and the MAPK/PI3K inhibition entry is “-”. Moreover, in assay [3], the “Early apoptosis, externalization of PS” value is “lowest”. Besides, the “Caspase 3 activation” value in assay [6] (summary, NSCLC A549 cells) is “-”. The TI in assay [4] is listed as 1.26.

As for `C[C@H]1[C@H](C)CC[C@]2(C(=O)O)CC[C@]3(C)C(=CC[C@@H]4[C@@]5(C)CC[C@H](O)C(C)(C)[C@@H]5CC[C@]43C)[C@H]12` [UrA, ursolic acid], the IC50 in assay [1] is 23 ± 1 µM. Also, in assay [5], the “Autophagic response (in words)” value is given as “induced an autophagic response similar to that of CisPt” and the Autophagy inhibition entry was “-”. In assay [2], the “MAPK/PI3K expression (in words)” value was “induced the simultaneous expression of MAPK and PI3K”; the MAPK/PI3K inhibition entry is “-”. Also, in assay [3], the “Early apoptosis, externalization of PS” value is on record as “strongest activation”. For the same compound, in assay [6], the “Caspase 3 activation (in words)” value was “higher caspase 3 activation than CisPt; also recorded: highest”. In addition, in assay [4], the TI was 0.57 and the “TI > 1” value is reported as “-”.
